{"source": "PubChem BioAssay (NCI)", "note": "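96-well plates; 48 h exposure; 5 concentrations. Endpoints by linear interpolation between flanking doses. Not reached: highest tested concentration assigned. Here, GI50 denotes the concentration required for 50% inhibition of growth. TGI marks complete inhibition of growth.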"}
{"system": "HL-60(TB) leukemia", "assay": "NCI tumour cell line growth inhibition, 48 h", "units": {"TGI": "µM"}}
{"smiles": "Nc1cc(Cl)cc2cc(Cl)cnc12", "TGI": "> 100"}
{"smiles": "CSC1=N/C(=C\\c2ccc(C)cc2)C(=O)N1", "TGI": "> 100"}
{"smiles": "O=S(=O)(O)CCSSCCS(=O)(=O)O", "TGI": "> 1000"}
{"smiles": "COC(=O)/C(C)=N/NC(=S)SC", "TGI": 28.5}
{"smiles": "CC(=O)OCC1OC(NC(=S)Nn2c(=O)[nH]c3ccccc3c2=O)C(OC(C)=O)C(OC(C)=O)C1OC(C)=O", "note": "(stereo unspecified)", "TGI": "> 100"}
{"smiles": "Cc1ccc2c(c1)C(=O)C1(C2)Cc2c(C)cccc2C1=O", "note": "(stereo unspecified)", "TGI": "> 100"}
{"smiles": "CC1=NN(c2cccc(S(=O)(=O)O)c2)C2(C1)C(Cl)C(=O)N2c1nc2ccccc2s1", "note": "(stereo unspecified)", "TGI": 7.16}
{"smiles": "C[C@]12CC[C@H]3[C@@H](CCC4=CC(=O)CC[C@@H]43)[C@@H]1CC[C@]2(O)C(N)=O", "TGI": "> 100"}
{"smiles": "O=c1[nH]c(=O)n(C/C=C/CO)nc1Br", "TGI": "> 100"}
{"smiles": "O=C1CC(Br)c2c(Br)sc(Br)c21", "note": "(stereo unspecified)", "TGI": 39.3}
{"smiles": "COC(=O)C1C2OC(C)(C)OC2CN1S(=O)(=O)c1ccc(C)cc1", "note": "(stereo unspecified)", "TGI": "> 100"}
{"smiles": "CC12CCCC(C(=O)O)(C1)[C@H](C(C)(C)C(=O)O)CC2", "note": "(stereo partly specified)", "TGI": "> 100"}
{"smiles": "COc1ccc(CNc2ccn(C3OC(CO)C(O)C3O)c(=O)n2)cc1", "note": "(stereo unspecified)", "TGI": 83.3}
{"smiles": "O=C1CSC(c2ccccc2)N1c1nc2cc3sc(N4C(=O)CSC4c4ccccc4)nc3cc2s1", "note": "(stereo unspecified)", "TGI": "> 100"}
{"smiles": "Cc1sc2nc(N(C)C)oc(=O)c2c1C", "TGI": "> 100"}
{"smiles": "N=C1C(=N)c2ccccc2-c2ccccc21.[Cl-].[Ru+2].c1cnc2c(c1)ccc1cccnc12.c1cnc2c(c1)ccc1cccnc12", "TGI": 54}
{"smiles": "NCc1ccc(-c2ccc(CN)s2)s1", "TGI": "> 100"}
{"smiles": "NC(CSS(=O)(=O)O)=NC1CC2CCC1C2", "note": "(stereo unspecified)", "TGI": "> 100"}
{"smiles": "CCC1CN2CCc3cc(OC)c(OC)cc3C2CC1CC1c2cc(OC)c(OC)cc2CCN1C(=O)C(N)Cc1ccccc1", "note": "(stereo unspecified)", "TGI": 4.8}
{"smiles": "CC(C)OC(=O)c1ccc(NCC2=CC(=O)C=CC2=O)cc1", "TGI": 5.24}
{"smiles": "COc1cccc(Nc2nc(C)c([N+](=O)[O-])c(Nc3cccc(OC)c3)n2)c1", "TGI": "> 100"}
{"smiles": "O=C(O)c1cccc(Nc2c(C(=O)O)cccc2[N+](=O)[O-])c1", "TGI": "> 100"}
{"smiles": "CC(C)C[C@H]1[C@@H](OCc2ccccc2)COS(=O)(=O)N1[C@H](C)c1ccccc1", "TGI": "> 69.7"}
{"smiles": "CN1CCC23c4c5ccc(Oc6nnnn6-c6ccccc6)c4OC2c2[nH]c4ccccc4c2CC3(O)C1C5", "note": "(stereo unspecified)", "TGI": 3.69}
{"smiles": "COC(=O)c1ccccc1/C=C1\\Cc2c(C)c3c(c(C)c2C1=O)CCC3", "TGI": "> 100"}
{"smiles": "O=c1[nH]c2cccc([N+](=O)[O-])c2c(=O)n1-c1ccc(Cl)cc1", "TGI": 53.3}
{"smiles": "O=C1c2ccccc2-c2nnc(-c3ccc([N+](=O)[O-])cc3)cc21", "TGI": "> 10"}
{"smiles": "CC(=O)OC1C=C(C=O)C(O)(C=O)C2(C)CCCC(C)(C)C12", "note": "(stereo unspecified)", "TGI": 0.895}
{"smiles": "C1C2CC3CC1CC(c1nn4c(C56CC7CC(CC(C7)C5)C6)nnc4s1)(C2)C3", "TGI": "> 100"}
{"smiles": "Cn1c(-c2cccs2)cc(-c2cccs2)c1-c1cccs1", "TGI": "> 100"}
{"smiles": "C[C@]12CCC(O)CC1=CC[C@@H]1[C@@H]2CC[C@]2(C)C(O)[C@H](n3ccnc3)C[C@@H]12", "note": "(stereo partly specified)", "TGI": 38.3}
{"smiles": "CCOC(=O)CC[C@H](N)C(=O)N[C@@H](Cc1ccc(N(CCCl)CCCl)cc1)C(=O)OCC", "TGI": 1.33}
{"smiles": "CC(C)CCCC(C)[C@H]1CC[C@H]2n3c(nnc3-c3ccccc3)CCC[C@]12C", "note": "(stereo partly specified)", "TGI": 16.2}
{"smiles": "CCCCCCCCCCCCCCCCP(=O)(O)OCC(N)C(=O)O", "note": "(stereo unspecified)", "TGI": 39.2}
{"smiles": "O=C(CSc1ncccn1)N/N=C/c1ccccc1OCc1ccccc1", "TGI": 47.5}
{"smiles": "C=CC(C)(C)n1cc(C2=C3OC(=O)C(c4cn(C(C)(C)C=C)c5ccccc45)=C3OC2=O)c2ccccc21", "TGI": "> 100"}
{"smiles": "NCC(Cl)C(O)c1cnc(N)[nH]1", "note": "(stereo unspecified)", "TGI": 25.4}
{"smiles": "CN1CCCC2C(c3ccccc3)C(C3=NCCCC3)C(c3ccccc3)CC21", "note": "(stereo unspecified)", "TGI": "> 100"}
{"smiles": "CCOC(=O)/C(C#N)=C/Nc1c(C)n(C)n(-c2ccccc2)c1=O", "TGI": "> 100"}
{"system": "LXFL 529 NSCLC", "assay": "NCI tumour cell line growth inhibition, 48 h", "units": {"GI50": "µM", "TGI": "µM"}}
{"smiles": "N=C1C(=N)c2ccccc2-c2ccccc21.[Cl-].[Ru+2].c1cnc2c(c1)ccc1cccnc12.c1cnc2c(c1)ccc1cccnc12", "GI50": 18.9, "TGI": 55.7}
{"smiles": "CCC1CN2CCc3cc(OC)c(OC)cc3C2CC1CC1c2cc(OC)c(OC)cc2CCN1C(=O)C(N)Cc1ccccc1", "note": "(stereo unspecified)", "TGI": 11.6}
{"smiles": "CC(C)=CCc1c(O)cc(O)c2c1OC(c1ccc(O)cc1)C(O)C2=O", "note": "(stereo unspecified)", "TGI": 86.9}
{"system": "DLD-1 colon", "assay": "NCI tumour cell line growth inhibition, 48 h", "units": {"TGI": "µM"}}
{"smiles": "Cc1[nH]c(=O)[nH]c(=O)c1/C=C/C(=O)NC(CO)CC(C)C", "note": "(stereo unspecified)", "TGI": "> 375"}
{"smiles": "CCC1CN2CCc3cc(OC)c(OC)cc3C2CC1CC1c2cc(OC)c(OC)cc2CCN1C(=O)C(N)Cc1ccccc1", "note": "(stereo unspecified)", "TGI": 14.1}
{"smiles": "CC(=O)OC1C=C(C=O)C(O)(C=O)C2(C)CCCC(C)(C)C12", "note": "(stereo unspecified)", "TGI": 3.77}
{"smiles": "CC(C)=CCc1c(O)cc(O)c2c1OC(c1ccc(O)cc1)C(O)C2=O", "note": "(stereo unspecified)", "TGI": "> 100"}
{"smiles": "NCC(Cl)C(O)c1cnc(N)[nH]1", "note": "(stereo unspecified)", "TGI": 29.2}
{"system": "HOP-92 NSCLC", "assay": "NCI tumour cell line growth inhibition, 48 h", "units": {"TGI": "µM"}}
{"smiles": "CCOc1cccc(C=Nc2ccccc2SSc2ccccc2N=Cc2cccc(OCC)c2O)c1O", "TGI": 33.3}
{"smiles": "COc1cc(C(=O)NNC(=O)c2cc(Br)ccc2NC(=O)c2cccs2)cc(OC)c1OC", "TGI": 46.9}
{"smiles": "C[N+]12CCCCC1C(COc1cccc3cccnc13)CCC2", "note": "(stereo unspecified)", "TGI": "> 100"}
{"smiles": "NC(=O)NC1NC(=O)NC1=O", "note": "(stereo unspecified)", "TGI": "> 100"}
{"smiles": "CC[C@@]1(O)C(=O)OCc2c1cc1n(c2=O)Cc2c-1nc1ccccc1c2/C=N\\NC(=O)C[n+]1ccccc1", "TGI": "> 31.6"}
{"smiles": "Cc1[nH]c(=O)[nH]c(=O)c1/C=C/C(=O)NC(CO)CC(C)C", "note": "(stereo unspecified)", "TGI": "> 343"}
{"smiles": "CCN(CCCl)c1cc(CN(C)C)cc(NC(=O)c2ccc(C(=O)Nc3cc(CN(C)C)cc(N(CC)CCCl)c3)cc2)c1", "TGI": 0.662}
{"smiles": "COc1ccccc1C[C@@H]1OC2(C=CC(=O)CC2SC(=O)c2ccccc2)O[C@H]1Cc1ccccc1OC", "note": "(stereo partly specified)", "TGI": 3.31}
{"smiles": "COc1ccc(CC2Cc3ccccc3CCN2)cc1OC", "note": "(stereo unspecified)", "TGI": "> 50"}
{"smiles": "C=CCN1C(=O)/C(=C/c2ccc(Cl)cc2)N=C1SC/C=C/C", "TGI": 84.2}
{"smiles": "CC12Nc3c(Cl)cc(Cl)cc3N1C(=O)c1ccccc12", "note": "(stereo unspecified)", "TGI": 82.1}
{"smiles": "OCC1OC(NC(=S)NCCC(F)(F)C(F)(F)C(F)(F)C(F)(F)C(F)(F)C(F)(F)F)C(O)C(O)C1O", "note": "(stereo unspecified)", "TGI": "> 100"}
{"smiles": "COC(=O)c1ccccc1/C=C1\\Cc2c(ccc3c2CCC3)C1=O", "TGI": "> 100"}
{"smiles": "Nc1cc(Cl)cc2cc(Cl)cnc12", "TGI": 99.3}
{"smiles": "CSC1=N/C(=C\\c2ccc(C)cc2)C(=O)N1", "TGI": "> 100"}
{"smiles": "O=S(=O)(O)CCSSCCS(=O)(=O)O", "TGI": "> 1000"}
{"smiles": "COC(=O)/C(C)=N/NC(=S)SC", "TGI": "> 100"}
{"smiles": "CC(=O)OCC1OC(NC(=S)Nn2c(=O)[nH]c3ccccc3c2=O)C(OC(C)=O)C(OC(C)=O)C1OC(C)=O", "note": "(stereo unspecified)", "TGI": "> 100"}
{"smiles": "Cc1ccc2c(c1)C(=O)C1(C2)Cc2c(C)cccc2C1=O", "note": "(stereo unspecified)", "TGI": "> 100"}
{"smiles": "CC1=NN(c2cccc(S(=O)(=O)O)c2)C2(C1)C(Cl)C(=O)N2c1nc2ccccc2s1", "note": "(stereo unspecified)", "TGI": 9.95}
{"smiles": "C[C@]12CC[C@H]3[C@@H](CCC4=CC(=O)CC[C@@H]43)[C@@H]1CC[C@]2(O)C(N)=O", "TGI": "> 100"}
{"smiles": "O=c1[nH]c(=O)n(C/C=C/CO)nc1Br", "TGI": "> 100"}
{"smiles": "O=C1CC(Br)c2c(Br)sc(Br)c21", "note": "(stereo unspecified)", "TGI": 31.5}
{"smiles": "COC(=O)C1C2OC(C)(C)OC2CN1S(=O)(=O)c1ccc(C)cc1", "note": "(stereo unspecified)", "TGI": "> 100"}
{"smiles": "CC12CCCC(C(=O)O)(C1)[C@H](C(C)(C)C(=O)O)CC2", "note": "(stereo partly specified)", "TGI": "> 100"}
{"smiles": "COc1ccc(CNc2ccn(C3OC(CO)C(O)C3O)c(=O)n2)cc1", "note": "(stereo unspecified)", "TGI": "> 100"}
{"smiles": "O=C1CSC(c2ccccc2)N1c1nc2cc3sc(N4C(=O)CSC4c4ccccc4)nc3cc2s1", "note": "(stereo unspecified)", "TGI": "> 100"}
{"smiles": "Cc1sc2nc(N(C)C)oc(=O)c2c1C", "TGI": "> 100"}
